≈ marks a conversion by molar mass, not a printed value.

The term IC50 denotes the concentration at which inhibition is half-maximal. The term IC90 denotes the concentration needed for an effect of 90%.

The subject of the first test is MGC-803 (human gastric cancer) cells. Kind of test: MTT cell growth inhibition, solid tumor cells. It is filed as cell-based. The note with it: MGC-803, 72 h, MTT, read-out: IC50. The method in brief: (§1)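 MTT was used to measure cell survival. Wells held 6000 cells in 10% FBS high-glucose DMEM, pre-incubated 24 h, then dosed with compound at various concentrations for 72 h (37 °C, 5% CO2).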
As to `COc1ccc2cc1Oc1ccc(cc1)C[C@H]1c3cc(c(OC)cc3CCN1C)Oc1c(OCC3CC3)c(OC)cc3c1[C@H](C2)N(C)CC3` [BS-FC-208], the IC50 was 1.49 µg/mL (≈ 2.25 µM).
As for `C=CCOc1c(OC)cc2c3c1Oc1cc4c(cc1OC)CCN(C)[C@H]4Cc1ccc(cc1)Oc1cc(ccc1OC)C[C@@H]3N(C)CC2` [BS-FC-213], the IC50 was determined as 1.49 µg/mL (≈ 2.3 µM).
Still for that read-out and setting: for `COc1ccc2cc1Oc1ccc(cc1)C[C@H]1c3cc(c(OC)cc3CCN1C)Oc1c(OCc3ccc(C(F)(F)F)cc3)c(OC)cc3c1[C@H](C2)N(C)CC3` [BS-FC-216] the value was 2.72 µg/mL (≈ 3.55 µM); for `COc1ccc2cc1Oc1ccc(cc1)C[C@H]1c3cc(c(OC)cc3CCN1C)Oc1c(OC3CCCC3)c(OC)cc3c1[C@H](C2)N(C)CC3` [BS-FC-220], 1.4 µg/mL (≈ 2.07 µM).
On the same count and under the same terms, next, `C=C(C)COc1c(OC)cc2c3c1Oc1cc4c(cc1OC)CCN(C)[C@H]4Cc1ccc(cc1)Oc1cc(ccc1OC)C[C@@H]3N(C)CC2` [BS-FC-221]: 1.19 µg/mL (≈ 1.8 µM).

The test is the same for the next values; noted with them: MGC-803, 72 h, MTT, read-out: IC90.
Take `COc1ccc2cc1Oc1ccc(cc1)C[C@H]1c3cc(c(OC)cc3CCN1C)Oc1c(OCC3CC3)c(OC)cc3c1[C@H](C2)N(C)CC3` [BS-FC-208]: the IC90 stood at 5.98 µg/mL (≈ 9.02 µM).
On the same count and under the same terms, for `C=CCOc1c(OC)cc2c3c1Oc1cc4c(cc1OC)CCN(C)[C@H]4Cc1ccc(cc1)Oc1cc(ccc1OC)C[C@@H]3N(C)CC2` [BS-FC-213] the value was 6.02 µg/mL (≈ 9.28 µM); for `COc1ccc2cc1Oc1ccc(cc1)C[C@H]1c3cc(c(OC)cc3CCN1C)Oc1c(OCc3ccc(C(F)(F)F)cc3)c(OC)cc3c1[C@H](C2)N(C)CC3` [BS-FC-216], 3.98 µg/mL (≈ 5.19 µM); for `COc1ccc2cc1Oc1ccc(cc1)C[C@H]1c3cc(c(OC)cc3CCN1C)Oc1c(OC3CCCC3)c(OC)cc3c1[C@H](C2)N(C)CC3` [BS-FC-220], 3.96 µg/mL (≈ 5.85 µM).
The same measure, in the same setting: next, `C=C(C)COc1c(OC)cc2c3c1Oc1cc4c(cc1OC)CCN(C)[C@H]4Cc1ccc(cc1)Oc1cc(ccc1OC)C[C@@H]3N(C)CC2` [BS-FC-221]: 3.93 µg/mL (≈ 5.93 µM).

A further test concerns A549 (human lung cancer) cells. Kind of test: MTT cell growth inhibition, solid tumor cells. It is filed as cell-based. Particulars: Homo sapiens; A549, 72 h, MTT; read-out: IC50. The method in brief:
as §1
On to `COc1ccc2cc1Oc1ccc(cc1)C[C@H]1c3cc(c(OC)cc3CCN1C)Oc1c(OCC3CC3)c(OC)cc3c1[C@H](C2)N(C)CC3` [BS-FC-208], for which the IC50 amounted to 2.51 µg/mL (≈ 3.79 µM).
Same read-out and setting: for `C=CCOc1c(OC)cc2c3c1Oc1cc4c(cc1OC)CCN(C)[C@H]4Cc1ccc(cc1)Oc1cc(ccc1OC)C[C@@H]3N(C)CC2` [BS-FC-213] the value was 2.19 µg/mL (≈ 3.38 µM); for `COc1ccc2cc1Oc1ccc(cc1)C[C@H]1c3cc(c(OC)cc3CCN1C)Oc1c(OCc3ccc(C(F)(F)F)cc3)c(OC)cc3c1[C@H](C2)N(C)CC3` [BS-FC-216], 2.7 µg/mL (≈ 3.52 µM).
As to `COc1ccc2cc1Oc1ccc(cc1)C[C@H]1c3cc(c(OC)cc3CCN1C)Oc1c(OC3CCCC3)c(OC)cc3c1[C@H](C2)N(C)CC3` [BS-FC-220], the IC50 was found to be 2.55 µg/mL (≈ 3.77 µM).
Still for that read-out and setting: next, `C=C(C)COc1c(OC)cc2c3c1Oc1cc4c(cc1OC)CCN(C)[C@H]4Cc1ccc(cc1)Oc1cc(ccc1OC)C[C@@H]3N(C)CC2` [BS-FC-221]: 1.2 µg/mL (≈ 1.81 µM).

Still in this test, the particulars now being: Homo sapiens; A549, 72 h, MTT; read-out: IC90.
Regarding `COc1ccc2cc1Oc1ccc(cc1)C[C@H]1c3cc(c(OC)cc3CCN1C)Oc1c(OCC3CC3)c(OC)cc3c1[C@H](C2)N(C)CC3` [BS-FC-208], the IC90 came out at 13.1 µg/mL (≈ 19.7 µM).
On the same count and under the same terms, next, `C=CCOc1c(OC)cc2c3c1Oc1cc4c(cc1OC)CCN(C)[C@H]4Cc1ccc(cc1)Oc1cc(ccc1OC)C[C@@H]3N(C)CC2` [BS-FC-213]: 4.92 µg/mL (≈ 7.58 µM); `COc1ccc2cc1Oc1ccc(cc1)C[C@H]1c3cc(c(OC)cc3CCN1C)Oc1c(OCc3ccc(C(F)(F)F)cc3)c(OC)cc3c1[C@H](C2)N(C)CC3` [BS-FC-216]: 5.9 µg/mL (≈ 7.69 µM).
Regarding `COc1ccc2cc1Oc1ccc(cc1)C[C@H]1c3cc(c(OC)cc3CCN1C)Oc1c(OC3CCCC3)c(OC)cc3c1[C@H](C2)N(C)CC3` [BS-FC-220], the IC90 stood at 4.97 µg/mL (≈ 7.34 µM).
Same read-out and setting: for `C=C(C)COc1c(OC)cc2c3c1Oc1cc4c(cc1OC)CCN(C)[C@H]4Cc1ccc(cc1)Oc1cc(ccc1OC)C[C@@H]3N(C)CC2` [BS-FC-221] the value was 3.18 µg/mL (≈ 4.8 µM).

The test system of the next test is Hep-2 (laryngeal carcinoma) cells. The test can be described thus: MTT cell growth inhibition, solid tumor cells. The note with it: Homo sapiens; Hep-2, 72 h, MTT; read-out: IC50. It is filed as cell-based. The procedure, abridged: as §1
In the case of `COc1ccc2cc1Oc1ccc(cc1)C[C@H]1c3cc(c(OC)cc3CCN1C)Oc1c(OCC3CC3)c(OC)cc3c1[C@H](C2)N(C)CC3` [BS-FC-208], the IC50 amounted to 3.27 µg/mL (≈ 4.93 µM).
Still for that read-out and setting: next, `C=CCOc1c(OC)cc2c3c1Oc1cc4c(cc1OC)CCN(C)[C@H]4Cc1ccc(cc1)Oc1cc(ccc1OC)C[C@@H]3N(C)CC2` [BS-FC-213]: 3.63 µg/mL (≈ 5.59 µM); `COc1ccc2cc1Oc1ccc(cc1)C[C@H]1c3cc(c(OC)cc3CCN1C)Oc1c(OCc3ccc(C(F)(F)F)cc3)c(OC)cc3c1[C@H](C2)N(C)CC3` [BS-FC-216]: 3.69 µg/mL (≈ 4.81 µM).
Still for that read-out and setting: next, `COc1ccc2cc1Oc1ccc(cc1)C[C@H]1c3cc(c(OC)cc3CCN1C)Oc1c(OC3CCCC3)c(OC)cc3c1[C@H](C2)N(C)CC3` [BS-FC-220]: 4.2 µg/mL (≈ 6.21 µM); `C=C(C)COc1c(OC)cc2c3c1Oc1cc4c(cc1OC)CCN(C)[C@H]4Cc1ccc(cc1)Oc1cc(ccc1OC)C[C@@H]3N(C)CC2` [BS-FC-221]: 1.9 µg/mL (≈ 2.87 µM).

Still in this test, the particulars now being: Homo sapiens; Hep-2, 72 h, MTT; read-out: IC90.
Take `COc1ccc2cc1Oc1ccc(cc1)C[C@H]1c3cc(c(OC)cc3CCN1C)Oc1c(OCC3CC3)c(OC)cc3c1[C@H](C2)N(C)CC3` [BS-FC-208]: the IC90 was 8.05 µg/mL (≈ 12.1 µM).
The same measure, in the same setting: for `C=CCOc1c(OC)cc2c3c1Oc1cc4c(cc1OC)CCN(C)[C@H]4Cc1ccc(cc1)Oc1cc(ccc1OC)C[C@@H]3N(C)CC2` [BS-FC-213] the value was 9.9 µg/mL (≈ 15.3 µM); for `COc1ccc2cc1Oc1ccc(cc1)C[C@H]1c3cc(c(OC)cc3CCN1C)Oc1c(OCc3ccc(C(F)(F)F)cc3)c(OC)cc3c1[C@H](C2)N(C)CC3` [BS-FC-216], 7.88 µg/mL (≈ 10.3 µM).
Same read-out and setting: for `COc1ccc2cc1Oc1ccc(cc1)C[C@H]1c3cc(c(OC)cc3CCN1C)Oc1c(OC3CCCC3)c(OC)cc3c1[C@H](C2)N(C)CC3` [BS-FC-220] the value was 10.3 µg/mL (≈ 15.2 µM).
With `C=C(C)COc1c(OC)cc2c3c1Oc1cc4c(cc1OC)CCN(C)[C@H]4Cc1ccc(cc1)Oc1cc(ccc1OC)C[C@@H]3N(C)CC2` [BS-FC-221], the IC90 came out at 5.78 µg/mL (≈ 8.72 µM).

For the origin of these results see US9328122B2, “7-substituted Hanfangichin B derivative, and preparation method and use thereof” (HANGZHOU BENSHENG PHARMACEUTICAL CO., LTD., priority 2012, dated 2016).
